Test results from US20090170838A1, “Bicycloheteroaryl compounds as P2X7 modulators and uses thereof” (Renovis, Inc., priority 2005, published 2009).

What follows are molecules tested against T1, P2X7 receptor (Homo sapiens, UniProt Q99572) (assay: IL-1β release assay (BzATP-stimulated, LPS/IFN-γ differentiated THP-1 cells, ELISA)). Conditions: at 0.1 μM (asterisk symbols).
T1 construct: host or cells: THP-1 cells differentiated with LPS and IFN-γ
T1 sequence (Q99572 1-595): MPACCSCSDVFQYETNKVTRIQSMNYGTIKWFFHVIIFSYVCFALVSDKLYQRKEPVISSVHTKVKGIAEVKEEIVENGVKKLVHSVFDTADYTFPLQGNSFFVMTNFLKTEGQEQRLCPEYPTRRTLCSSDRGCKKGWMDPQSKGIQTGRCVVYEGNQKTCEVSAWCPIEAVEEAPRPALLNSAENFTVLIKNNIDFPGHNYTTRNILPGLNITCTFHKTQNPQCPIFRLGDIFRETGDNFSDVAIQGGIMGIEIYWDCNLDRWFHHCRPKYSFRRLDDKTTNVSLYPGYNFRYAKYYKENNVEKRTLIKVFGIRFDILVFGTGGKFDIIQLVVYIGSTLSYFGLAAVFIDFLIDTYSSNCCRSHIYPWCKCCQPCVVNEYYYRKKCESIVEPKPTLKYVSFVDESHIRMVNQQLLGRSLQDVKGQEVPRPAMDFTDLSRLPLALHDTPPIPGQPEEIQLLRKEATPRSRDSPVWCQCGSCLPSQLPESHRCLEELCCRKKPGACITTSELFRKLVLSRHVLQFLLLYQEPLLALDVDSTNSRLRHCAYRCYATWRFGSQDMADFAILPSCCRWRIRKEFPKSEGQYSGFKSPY
Format: cell-based
Method: THP-1 cells (ATCC Cat # 285-IF-100) are plated in 96 well plates at a concentration of 200,000 cells per well and allowed to differentiate in RPMI-1640 media (ATCC Cat # 30-2001) containing 10% FBS, 100 IU/mL penicillin, 100 ug/mL streptomycin, 100 ng/mL LPS and 100 ng/mL IFN-γ for 16 hours. Following differentiation, the cells are treated for an additional 2 hours in RPMI-1640 media containing 100 IU/mL penicillin, 100 ug/mL streptomycin and fresh LPS at 100 ng/mL. The cells are then pretreated for 30 minutes with the compound of interest at the appropriate concentration in RPMI media containing 100 IU/mL penicillin, 100 ug/mL streptomycin. Following the pretreatment 2′,3′-O-(4-benzoylbenzoyl)-adenosine 5′-triphosphate (Sigma Aldrich Cat# B6396) is added to a final concentration of 250 uM and the cells incubated for an additional 45 minutes. 30 uL of cell supernatant is then collected and […] levels determined via ELISA (R&D systems Cat. # HSLB50) according to manufacturer's recommendations using the Tecan Safire plate reader. Background adjusted IL-1β levels of drug treated and non-treated cells are used to calculate the percent inhibition.

inhibition at 0.1 µM [%]	Compound
50 to 75	CC12CC3CC(C)(C1)CC(CC(=O)Nc1cccc4c(=O)n(Cc5ccccc5)ccc14)(C3)C2 [Compound 751]
≥ 75	O=C(CC12CC3CC(CC(C3)C1)C2)Nc1cccc2c1CCN(C(CO)CO)C2=O [Compound 827]
≥ 75	NC(=O)CN1CCc2c(NC(=O)CC34CC5CC(CC(C5)C3)C4)cccc2C1=O [Compound 828]
≥ 75	NC(=O)CCn1ccc2c(NC(=O)CC34CC5CC(CC(C5)C3)C4)cccc2c1=O [Compound 829]
≥ 75	CCN1CCCC1CN1CCc2c(NC(=O)CC34CC5CC(CC(C5)C3)C4)cccc2C1=O (centres unmarked) [Compound 834]
≥ 75	CC12CC3CC(C)(C1)CC(CC(=O)Nc1cccc4c(=O)n(Cc5c(F)cccc5F)ccc14)(C3)C2 [Compound 835]
≥ 75	CC(c1cccnc1)n1ccc2c(NC(=O)CC34CC5CC(CC(C5)C3)C4)cccc2c1=O (centres unmarked) [Compound 837]
≥ 75	CC(c1ccccc1)N1CCc2c(NC(=O)CC34CC5CC(C)(CC(C)(C5)C3)C4)cccc2C1=O (centres unmarked) [Compound 838]
50 to 75	CC12CC3CC(C)(C1)CC(CC(=O)Nc1cccc4c1CCN(Cc1ccccc1F)C4=O)(C3)C2 [Compound 839]
≥ 75	CC12CC3CC(C)(C1)CC(CC(=O)Nc1cccc4c(=O)[nH]ccc14)(C3)C2 [Compound 841]
≥ 75	CN1CCN(CCN2CCc3c(NC(=O)CC45CC6CC(CC(C6)C4)C5)cccc3C2=O)CC1 [Compound 842]
≥ 75	CC(C)(CN1CCOCC1)N1CCc2c(NC(=O)CC34CC5CC(CC(C5)C3)C4)cccc2C1=O [Compound 843]
≥ 75	O=C(CC12CC3CC(CC(C3)C1)C2)Nc1cccc2c(=O)n(CCO)ccc12 [Compound 845]
≥ 75	CC(c1ccccn1)n1ccc2c(NC(=O)CC34CC5CC(CC(C5)C3)C4)cccc2c1=O (centres unmarked) [Compound 858]
50 to 75	CC1CN(CCn2ccc3c(NC(=O)CC45CC6CC(CC(C6)C4)C5)cccc3c2=O)CC(C)O1 (centres unmarked) [Compound 869]
≥ 75	CCN(CC)CCn1ccc2c(NC(=O)CC34CC5CC(CC(C5)C3)C4)cccc2c1=O [Compound 870]
≥ 75	O=C(CC12CC3CC(CC(C3)C1)C2)Nc1cccc2c1CCN(CC1COc3ccccc3O1)C2=O (centres unmarked) [Compound 872]
≥ 75	O=C(CC12CC3CC(CC(C3)C1)C2)Nc1cccc2c1CCN(CC1CCNCC1)C2=O [Compound 875]
≥ 75	O=C(CC12CC3CC(CC(C3)C1)C2)Nc1cccc2c1CCN(CCCN1CCOCC1)C2=O [Compound 876]
≥ 75	O=C(CC12CC3CC(CC(C3)C1)C2)Nc1cccc2c1CCN(CCCN1CCCC1)C2=O [Compound 880]
≥ 75	NC(=O)[C@@H](CC1CCCCC1)n1ccc2c(NC(=O)CC34CC5CC(CC(C5)C3)C4)cccc2c1=O [Compound 881]
≥ 75	O=C(CC12CC3CC(CC(C3)C1)C2)Nc1cccc2c(=O)n(Cc3nccs3)ccc12 [Compound 885]
≥ 75	CC(C)C(CO)n1ccc2c(NC(=O)CC34CC5CC(CC(C5)C3)C4)cccc2c1=O (centres unmarked) [Compound 887]

Further lines, the molecule ahead of its results:

Compound	inhibition at 0.1 µM [%]
O=C(CC12CC3CC(CC(C3)C1)C2)Nc1cccc2c(=O)n(C(CO)CO)ccc12 [Compound 826]	≥ 75
O=C(CC12CC3CC(CC(C3)C1)C2)Nc1cccc2c1CCN(CC1CCOCC1)C2=O [Compound 833]	≥ 75
O=C(CC12CC3CC(CC(C3)C1)C2)Nc1cccc2c1CCN(CCCn1ccnc1)C2=O [Compound 836]	≥ 75
CC12CC3CC(C)(C1)CC(CC(=O)Nc1cccc4c1CCN(Cc1c(F)cccc1F)C4=O)(C3)C2 [Compound 840]	≥ 75
CC(C)(C)OC(=O)N1CCCC1CN1CCc2c(NC(=O)CC34CC5CC(CC(C5)C3)C4)cccc2C1=O (centres unmarked) [Compound 857]	≥ 75
CC(c1ccncc1)n1ccc2c(NC(=O)CC34CC5CC(CC(C5)C3)C4)cccc2c1=O (centres unmarked) [Compound 859]	≥ 75
CC(C)Cn1ccc2c(NC(=O)CC34CC5CC(CC(C5)C3)C4)cccc2c1=O [Compound 871]	≥ 75
O=C(CC12CC3CC(CC(C3)C1)C2)Nc1cccc2c(=O)n(Cc3ccoc3)ccc12 [Compound 873]	≥ 75
O=C(CC12CC3CC(CC(C3)C1)C2)Nc1cccc2c1CCNC2=O [Compound 874]	≥ 75
CN1CCN(CCCN2CCc3c(NC(=O)CC45CC6CC(CC(C6)C4)C5)cccc3C2=O)CC1 [Compound 878]	≥ 75
CN1CCCC1CCN1CCc2c(NC(=O)CC34CC5CC(CC(C5)C3)C4)cccc2C1=O (centres unmarked) [Compound 879]	≥ 75
NC(=O)[C@H](Cc1c[nH]cn1)n1ccc2c(NC(=O)CC34CC5CC(CC(C5)C3)C4)cccc2c1=O [Compound 882]	≥ 75
O=C(CC12CC3CC(CC(C3)C1)C2)Nc1cccc2c(=O)n(C(CO)Cc3c[nH]cn3)ccc12 (centres unmarked) [Compound 883]	≥ 75

Same assay, conditions: at 0.3 μM (plus symbols)

inhibition at 0.3 µM [%]	Compound
≥ 75	O=C(CC12CC3CC(CC(C3)C1)C2)Nc1cccc2c(=O)n(Cc3ccc4c(c3)OCCO4)ccc12 [Compound 707]
≥ 75	O=C(CC12CC3CC(CC(C3)C1)C2)Nc1cccc2c(=O)n(CC3CCCO3)ccc12 (centres unmarked) [Compound 709]
≥ 75	O=C(CC12CC3CC(CC(C3)C1)C2)Nc1cccc2c1CCN(Cc1ccc(C(F)(F)F)cc1)C2=O [Compound 727]
50 to 75	C=Cn1ccc2c(N(C)C(=O)CC34CC5CC(CC(C5)C3)C4)cccc2c1=O [Compound 891]
25 to 50	CC(C)Cn1ccc2c(N(C)C(=O)CC34CC5CC(CC(C5)C3)C4)cccc2c1=O [Compound 893]
≥ 75	C[C@H](CO)n1ccc2c(NC(=O)CC34CC5CC(CC(C5)C3)C4)cccc2c1=O [Compound 897]

Further lines, the molecule ahead of its results:

Compound	inhibition at 0.3 µM [%]
O=C(CC12CC3CC(CC(C3)C1)C2)Nc1cccc2c1CCN(Cc1ccccc1)C2=O [Compound 702, 2-Adamantan-1-yl-N-(2-benzyl-1-oxo-1,2,3,4-tetrahydro-isoquinolin-5-yl)-acetamide]	≥ 75
O=C(CC12CC3CC(CC(C3)C1)C2)Nc1cccc2c(=O)n(CC3CCOCC3)ccc12 [Compound 717]	≥ 75
CC(CO)n1ccc2c(NC(=O)CC34CC5CC(CC(C5)C3)C4)cccc2c1=O (centres unmarked) [Compound 888]	≥ 75
CC12CC3CC(C)(C1)CC(CC(=O)Nc1cccc4c(=O)n(CC5CCNCC5)ccc14)(C3)C2 [Compound 890]	≥ 75
CC12CC3CC(C)(C1)CC(CC(=O)Nc1cccc4c(=O)n(CCCN5CCOCC5)ccc14)(C3)C2 [Compound 892]	≥ 75
CN1CCC(CN2CCc3c(NC(=O)CC45CC6CC(C)(CC(C)(C6)C4)C5)cccc3C2=O)CC1 [Compound 894]	≥ 75
CC12CC3CC(C)(C1)CC(CC(=O)Nc1cccc4c(=O)n(C(CO)CO)ccc14)(C3)C2 [Compound 895]	≥ 75
C[C@@H](CO)n1ccc2c(NC(=O)CC34CC5CC(CC(C5)C3)C4)cccc2c1=O [Compound 896]	≥ 75

These molecules were tested against T1, P2X7 receptor (assay: Pore formation (Yo-Pro 1 uptake, BzATP-stimulated differentiated THP-1 cells)). Conditions: at 0.1 μM (asterisk symbols).
Format: cell-based
Method: THP-1 cells (ATCC Cat # 285-IF-100) are plated in 96 well plates at a concentration of 200,000 cells per well and allowed to differentiate in RPMI-1640 media (ATCC Cat # 30-2001) containing 10% FBS, 100 IU/mL penicillin, 100 ug/mL streptomycin, 100 ng/mL LPS and 100 ng/mL IFN-γ for 16 hours. Following differentiation, the cells are pretreated with the compound of interest at the appropriate concentration for 30 minutes in RPMI-1640 media containing 100 IU/mL penicillin, 100 ug/mL streptomycin. The pretreatment media is then replaced with assay buffer (20 mM HEPES, 10 mM D-glucose, 118 mM NMDG, 5 mM KCl, 0.4 mM CaCl2) containing 5 uM Yo-Pro 1 (Molecular Probes Cat # Y3603) and the compound of interest at the appropriate concentration and the cells are incubated for an additional 10 minutes. 2′,3′-O-(4-benzoylbenzoyl)-adenosine 5′-triphosphate (Sigma Aldrich Cat# B6396) is then added to a final concentration of 40 uM and fluoroscence readings measured at 491/509 excitation/emission every minute for 50 minutes using a Tecan Safire plate reader. During this time temperature is maintained at of 37° C. Background adjusted fluorescence levels between drug treated and non-treated cells are used to calculate the percent inhibition.

inhibition at 0.1 µM [%]	Compound
50 to 75	CC12CC3CC(C)(C1)CC(CC(=O)Nc1cccc4c(=O)n(Cc5ccccc5)ccc14)(C3)C2 [Compound 751]

Same assay, conditions: at 0.3 μM (plus symbols)

inhibition at 0.3 µM [%]	Compound
≥ 75	O=C(CC12CC3CC(CC(C3)C1)C2)Nc1cccc2c(=O)n(Cc3ccc4c(c3)OCCO4)ccc12 [Compound 707]
≥ 75	O=C(CC12CC3CC(CC(C3)C1)C2)Nc1cccc2c(=O)n(CC3CCCO3)ccc12 (centres unmarked) [Compound 709]
≥ 75	O=C(CC12CC3CC(CC(C3)C1)C2)Nc1cccc2c1CCN(Cc1ccc(C(F)(F)F)cc1)C2=O [Compound 727]

Further lines, the molecule ahead of its results:

Compound	inhibition at 0.3 µM [%]
O=C(CC12CC3CC(CC(C3)C1)C2)Nc1cccc2c1CCN(Cc1ccccc1)C2=O [Compound 702, 2-Adamantan-1-yl-N-(2-benzyl-1-oxo-1,2,3,4-tetrahydro-isoquinolin-5-yl)-acetamide]	≥ 75
O=C(CC12CC3CC(CC(C3)C1)C2)Nc1cccc2c(=O)n(CC3CCOCC3)ccc12 [Compound 717]	≥ 75
